Experiments:
[1] = test system: PMA/Ionomycin-induced NF-κB reporter gene activity; assay: NF-κB luciferase reporter gene assay, PMA/Ionomycin-stimulated HEK293-NF-κB-luc cells; format: cell-based; conditions: for IC50: Table II, read-out: IC50, Inhibition of antigen receptor-mediated Nf-κB; for inhibition of PMA/Ionomycin-induced NF-κB luciferase activity: HEK293
Source text: The strategy for compound library screening entailed using phorbol ester (phorbol myristic acetate [PMA]) and Ca^2+-ionophore Ionomycin to achieve PKC activation, mimicking the initiating events in the antigen receptor pathway. For convenience, we used HEK293 epithelial cells, in which it has previously been shown by siRNA-mediated gene silencing and transfection of dominant-negative mutants that PMA/Ionomycin-induced NF-κB activation is dependent on CARMA1, Bcl-10, and MALT. HEK293 cells were stably transfected with a luciferase reporter gene driven by a NF-κB responsive promoter, and the responsiveness of this integrated promoter to various NF-κB inducing stimuli was confirmed, including PMA/Ionomycin and TNF. Using these cells, 96- and 384-well plate-based high throughput screening (HTS) assays were established, with good assay performance characteristics (Z′>0.5) (PubChem AID=1384). We initially screened 53,280 chemical compounds at an average concentration of 5 μM, of which 519 primary hits were obtained (based on cut-off of 50% inhibition). Of these, 248 confirmed upon repeat testing (FIG. 1).
Cell engineering. HEK293 cells were co-transfected with pUC13-4xNFκB-Luc and p-TK-puromycin-resistance plasmids. Stable clones were selected by culture in Dulbecco's Modified Eagle's Media (InVitrogen) supplemented with 10% heat-inactivated fetal bovine serum (FBS) (Hyclone), 1% v/v penicillin-streptomycin (InVitrogen) containing 1 μg/mL puromycin. Individual clones were tested for responsiveness to PMA/Ionomycin- and to TNF-induced NF-κB reporter gene activity, and a clone was selected for HTS.
HTS. NF-κB-luciferase expressing HEK293 cells were seeded at […] per well in white 96 well plates (Greiner Bio-One) in 90 μl of DMEM and incubated overnight. 10 μl of compound-containing solution was added to each well (final 1.5 μg/mL in 1% DMSO) using a liquid handler (Biomek™ FX; Beckman Coulter). After 2 h incubation, cells were stimulated using 11 μl of a PMA (final 100 ng/mL; Calbiochem) and ionomycin (final 50 ng/mL; Calbiochem) in DMEM. Cell plates were incubated for 16 h before media was removed and 40 μl of 0.5× passive lysis buffer (Promega Corp.) was added to cell plates. Plates were allowed to stand at room temperature for at least 15 minutes before adding 40 μl of 0.125× luciferin substrate (Promega Corp.) to each well. Plates were analyzed within 30 seconds with a Criterion Analyst™ using the luminescence method (0.1 second read/well).
Several compounds synthesized by the methods described herein were tested for their efficacy at inhibiting Nf-κB activation.

[2] = test system: TNF-induced NF-κB reporter gene activity; assay: TNF-induced NF-κB reporter counter-screen in HEK293-NFκB-Luc cells; format: cell-based; conditions: TNF 10 ng/mL; CID-2858522 at concentrations as high as 4 μM
Description: (§1) (A) Structures of two hit compounds, CID-2858522 (left) and CID-2998237 (right) are shown; (B, C) 293-NF-κB-luc cells were pretreated for 2 hrs with various concentration of either CID-2858522 (B) or CID-29982387 (C) and then stimulated with TNF (10 ng/mL) or PMA/lonomycin (10 ng/mL; 5 ng/mL) for 16 h. Luciferase activity was measured and data were expressed as a percentage relative to control treatment with DMSO only (mean±SD; n=3). (D) 293-NF-κB-luc cells were pretreated for 2 h with various concentrations of CID-2858522 or CID-2998237, then stimulated with PMA/lonomycin for 16 h. IL-8 release into the medium was measured, expressing data as a percentage relative to control cultures treated with DMSO (mean±SD; n=3). (E) 293-NF-κB-luc cells were pretreated with CID-2858522 and then stimulated with PDBu for 16 h, IL-8 production and NF-κB luciferase activity were measured as above. (F) 293-NF-κB-luc cells were pretreated for 2 h with various concentrations of CID-2858522 or a PKC inhibitor (Bisindolylmaleimide I) at 1 μM followed by PMA/Ionomycin (10 ng/mL) stimulation for 2 h, then p65-DNA-binding activity was measured in nuclear extracts (10 μg protein), expressing data as fold-increase relative to unstimulated cells (mean±SD; n=3).
Counter Screening and Secondary Assays. […] Luciferase activity was measured using Britelite kit (Perkin Elmer). […]

[3] = test system: PMA/Ionomycin-stimulated IL-8 production; assay: PMA/Ionomycin-stimulated IL-8 production by HEK293 reporter cells (ELISA); format: cell-based, human; conditions: CID-2998237 at concentrations as high as 4 μM
Description: as §1
Lymphokine measurements. Human IL-2 or IL-8 levels in culture medium were measured by Enzyme-Linked Immunosorbent Assays (ELISAs), using BD OptEIA ELISAs (BD Biosciences, San Diego, Calif.), according to the manufacturer's protocol, using 96-well ELISA plates (BD Biosciences) and measuring absorbance within 30 minutes of initiating reactions using a SpectraMax 190 spectrophotometer (Molecular Devices).

IC50 [1] | Compound | inhibition of PMA/Ionomycin-induced NF-κB luciferase activity [1] | also measured
0.25 µM | COCCCNc1nc2cc(C)c(C)cc2n1CC(=O)c1cc(C(C)(C)C)c(OC)c(C(C)(C)C)c1 [Compound 34, 2-(2-(3-methoxypropylamino)-5,6-dimethyl-1H-benzo[d]imidazol-1-yl)-1-(3,5-di-tert-butyl-4-methoxyphenyl)ethanone] | – | –
0.1 µM | CCCCNc1nc2cc(C)c(C)cc2n1CC(=O)c1cc(C(C)(C)C)c(O)c(C(C)(C)C)c1 [Compound 40, 1-(3,5-di-tert-butyl-4-hydroxyphenyl)-2-(2-(butylamino)-5,6-dimethyl-1H-benzo[d]imidazol-1-yl)ethanone] | – | –
0.25 µM | COCCCNc1nc2cc(C)c(C)cc2n1CC(=O)c1cc(C(C)(C)C)c(O)c(C(C)(C)C)c1 [Compound 33, 2-(2-(3-methoxypropylamino)-5,6-dimethyl-1H-benzo[d]imidazol-1-yl)-1-(3,5-di-tert-butyl-4-hydroxyphenyl)ethanone] | – | –

Further lines, the compound ahead of its results:

Compound | IC50 [1] | inhibition of PMA/Ionomycin-induced NF-κB luciferase activity [1] | also measured
COc1c(C(C)(C)C)cc(C(=O)Cn2c(NCCCO)nc3cc(C)c(C)cc32)cc1C(C)(C)C [Compound 32, 1-(3,5-di-tert-butyl-4-methoxyphenyl)-2-(2-(3-hydroxypropylamino)-5,6-dimethyl-1H-benzo[d]imidazol-1-yl)ethanone] | 0.07 µM | – | –
z-ITED-fmk [reference compound] | – | significantly inhibit | –
COC(=O)C1=C(CN2CCCc3ccccc32)NC(=O)NC1c1ccc(F)cc1 (centres unmarked) [CID-2998237] | – | less potent | inhibition of TNF-induced NF-κB reporter gene activity [2]: some modest inhibition; effect on PMA/Ionomycin-induced IL-8 production [3]: minimal effect

Reference: patent US20090247520A1, “INHIBITORS OF ANTIGEN RECEPTOR-INDUCED NF-kappa B ACTIVATION” (The Burnham Institute for Medical Research, priority 2008, published 2009)
